Measured values: ChEMBL document CHEMBL1201862, “PubChem BioAssay data set” (2004)
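96-well plates; 48 h exposure; 5 concentrations. Endpoints by linear interpolation between flanking doses. Not reached: highest tested concentration assigned. GI50 is the concentration that inhibits growth by half.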 The source made the active and inactive calls. No stated cut-off is given here; in the data, active = GI50 up to about 1.1 µM and inactive = higher.

Columns and labels:
Test in all cases: DTP human tumour cell line panel, 48 h
SK-MEL-2 = system: SK-MEL-2
KM12 = system: KM12
MDA-MB-435 = system: MDA-MB-435
NCI/ADR-RES = system: NCI/ADR-RES
K562 = system: K562
EKVX = system: EKVX
CCRF-CEM = system: CCRF-CEM
BT-549 = system: BT-549
SK-MEL-28 = system: SK-MEL-28
SR = system: SR
OVCAR-5 = system: OVCAR-5
PC-3 = system: PC-3
RXF 393 = system: RXF 393
CAKI-1 = system: CAKI-1
OVCAR-4 = system: OVCAR-4
HL-60 = system: HL-60
Hs-578T = system: Hs-578T
NCI-H522 = system: NCI-H522
OVCAR-8 = system: OVCAR-8
MDA-MB-231 = system: MDA-MB-231
786-0 = system: 786-0
A498 = system: A498
ACHN = system: ACHN
Malme-3M = system: Malme-3M
OVCAR-3 = system: OVCAR-3
HOP-62 = system: HOP-62
TK-10 = system: TK-10
NCI-H23 = system: NCI-H23
MOLT-4 = system: MOLT-4
LOX IMVI = system: LOX IMVI
SW-620 = system: SW-620
HCT-116 = system: HCT-116
HCC 2998 = system: HCC 2998
MDA-N = system: MDA-N
SF-295 = system: SF-295
SF-268 = system: SF-268
UACC-257 = system: UACC-257
HT-29 = system: HT-29
A549 = system: A549
U-251 = system: U-251
HOP-92 = system: HOP-92
UACC-62 = system: UACC-62
NCI-H460 = system: NCI-H460
SNB-75 = system: SNB-75
T47D = system: T47D
COLO 205 = system: COLO 205
SN12C = system: SN12C
MCF7 = system: MCF7
NCI-H226 = system: NCI-H226
HCT-15 = system: HCT-15
SF-539 = system: SF-539
SK-MEL-5 = system: SK-MEL-5
DU-145 = system: DU-145
UO-31 = system: UO-31
RPMI-8226 = system: RPMI-8226

Cc1n[nH]c(=O)n1/N=C/c1ccc([N+](=O)[O-])cc1
GI50 (SK-MEL-2): > 100 µM (inactive)
GI50 (KM12): > 100 µM (inactive)
GI50 (MDA-MB-435): > 100 µM (inactive)
GI50 (NCI/ADR-RES): > 100 µM (inactive)
GI50 (K562): > 100 µM (inactive)
GI50 (EKVX): 60.7 µM (inactive)
GI50 (CCRF-CEM): > 100 µM (inactive)
GI50 (BT-549): > 100 µM (inactive)
GI50 (SK-MEL-28): > 100 µM (inactive)
GI50 (SR): > 100 µM (inactive)
GI50 (OVCAR-5): > 100 µM (inactive)
GI50 (PC-3): > 100 µM (inactive)
GI50 (RXF 393): 61.2 µM (inactive)
GI50 (CAKI-1): 30.1 µM (inactive)
GI50 (OVCAR-4): > 100 µM (inactive)
GI50 (HL-60): > 100 µM (inactive)
GI50 (Hs-578T): 78 µM (inactive)
GI50 (NCI-H522): > 100 µM (inactive)
GI50 (OVCAR-8): > 100 µM (inactive)
GI50 (MDA-MB-231): > 100 µM (inactive)
GI50 (786-0): > 100 µM (inactive)
GI50 (A498): > 100 µM (inactive)
GI50 (ACHN): > 100 µM (inactive)
GI50 (Malme-3M): > 100 µM (inactive)
GI50 (OVCAR-3): > 100 µM (inactive)
GI50 (HOP-62): > 100 µM (inactive)
GI50 (TK-10): > 100 µM (inactive)
GI50 (NCI-H23): > 100 µM (inactive)
GI50 (MOLT-4): > 100 µM (inactive)
GI50 (LOX IMVI): > 100 µM (inactive)
GI50 (SW-620): > 100 µM (inactive)
GI50 (HCT-116): > 100 µM (inactive)
GI50 (HCC 2998): > 100 µM (inactive)
GI50 (MDA-N): > 100 µM (inactive)
GI50 (SF-295): > 100 µM (inactive)
GI50 (SF-268): 70.6 µM (inactive)
GI50 (UACC-257): > 100 µM (inactive)
GI50 (HT-29): > 100 µM (inactive)
GI50 (A549): > 100 µM (inactive)
GI50 (U-251): > 100 µM (inactive)
GI50 (HOP-92): 55.3 µM (inactive)
GI50 (UACC-62): > 100 µM (inactive)
GI50 (NCI-H460): > 100 µM (inactive)
GI50 (SNB-75): 41.1 µM (inactive)
GI50 (T47D): > 100 µM (inactive)
GI50 (COLO 205): > 100 µM (inactive)
GI50 (SN12C): > 100 µM (inactive)
GI50 (MCF7): > 100 µM (inactive)
GI50 (NCI-H226): > 100 µM (inactive)
GI50 (HCT-15): > 100 µM
GI50 (SF-539): > 100 µM (inactive)
GI50 (SK-MEL-5): > 100 µM (inactive)
GI50 (DU-145): > 100 µM (inactive)
GI50 (UO-31): > 100 µM (inactive)
GI50 (RPMI-8226): > 100 µM (inactive)
